Test results published in PubChem BioAssay AID330 (DTP/NCI, 2004).
Where “and” joins values, the source holds several entries; their conditions need not be identical. Equal values may be shown once. Inconclusive results and toxic doses are left out. Rule for the calls: active = survival T/C of 150% or more; inactive = T/C below 125% in these data.

System: P388 leukemia ip, CD2F1 mice, survival T/C
Test: NCI In Vivo Anticancer Drug Screen. Data for tumor model P388 Leukemia (intraperitoneal) in CD2F1 (CDF1) mice
Settings: endpoint: median survival time, higher = longer survival
Method in brief: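 Mice carrying the transplanted tumor received test compound or vehicle. Survival was recorded in each group, and the value is the treated-group measurement divided by that of the vehicle-treated control group.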

[1] = dose: 100.0 mg/kg/injection, schedule: Q04DX003 (ip), vehicle: saline with Tween-80
[2] = dose: 60.0 mg/kg/injection, schedule: Q01DX005 (ip), vehicle: saline with Tween-80
[3] = dose: 120.0 mg/kg/injection, schedule: Q01DX005 (ip), vehicle: saline with Tween-80
[4] = dose: 240.0 mg/kg/injection, schedule: Q01DX005 (ip), vehicle: saline with Tween-80
[5] = dose: 50.0 mg/kg/injection, schedule: Q01DX005 (ip), vehicle: saline
[6] = dose: 100.0 mg/kg/injection, schedule: Q01DX005 (ip), vehicle: saline
[7] = dose: 6.25 mg/kg/injection, schedule: Q01DX005 (ip), vehicle: saline with Tween-80
[8] = dose: 12.5 mg/kg/injection, schedule: Q01DX005 (ip), vehicle: saline with Tween-80
[9] = dose: 25.0 mg/kg/injection, schedule: Q01DX005 (ip), vehicle: saline with Tween-80
[10] = dose: 50.0 mg/kg/injection, schedule: Q01DX005 (ip), vehicle: saline with Tween-80
[11] = dose: 100.0 mg/kg/injection, schedule: Q01DX005 (ip), vehicle: saline with Tween-80
[12] = dose: 200.0 mg/kg/injection, schedule: Q01DX005 (ip), vehicle: saline with Tween-80
[13] = dose: 50.0 mg/kg/injection, schedule: Q01DX009 (ip), vehicle: saline with Tween-80
[14] = dose: 100.0 mg/kg/injection, schedule: Q01DX009 (ip), vehicle: saline with Tween-80

Measured: T/C

O=c1[nH]cnc2cc(N3CCCCC3)c([N+](=O)[O-])cc12
inactive: [1] 102 % of control | dose: 200.0 mg/kg/injection, schedule: Q04DX003 (ip), vehicle: saline with Tween-80 94 % of control | dose: 400.0 mg/kg/injection, schedule: Q04DX003 (ip), vehicle: saline with Tween-80 94 % of control

COc1cc2c(cc1O)-c1[nH]ncc1CCC2
inactive: dose: 100.0 mg/kg/injection, schedule: Q04DX003 (ip), vehicle: saline 101 % of control | dose: 200.0 mg/kg/injection, schedule: Q04DX003 (ip), vehicle: saline 97 % of control | dose: 400.0 mg/kg/injection, schedule: Q04DX003 (ip), vehicle: saline 102 % of control

Cc1cc2[nH]c3ccccc3n2c(=O)c1N=Nc1ccccc1
inactive: dose: 87.5 mg/kg/injection, schedule: Q04DX002 (ip), vehicle: Klucel (hydroxypropylcellulose) (HPC) 101 % of control | dose: 175.0 mg/kg/injection, schedule: Q04DX002 (ip), vehicle: Klucel (hydroxypropylcellulose) (HPC) 92 % of control | dose: 350.0 mg/kg/injection, schedule: Q04DX002 (ip), vehicle: Klucel (hydroxypropylcellulose) (HPC) 99 % of control

C/C(=C\C(=N\N=C(N)N)c1ccc(Cl)cc1)c1ccc(Cl)cc1
inactive: dose: 6.25 mg/kg/injection, schedule: Q01DX009 (ip), vehicle: saline with Tween-80 118 % of control | dose: 12.5 mg/kg/injection, schedule: Q01DX009 (ip), vehicle: saline with Tween-80 98 % of control

c1ccc2c(-c3cc(-c4cc(-c5cccc6ccccc56)on4)no3)cccc2c1
inactive: [2] 106 % of control | [3] 97 % of control | [4] 100 % of control

COc1cc(NCCN(C)C(C)Cc2ccccc2)c2ncccc2c1 (stereo not given)
inactive: [5] 106 % of control | [6] 104 % of control

CC(O)C1/C=C/C=C\C(=O)O[C@@H]2C[C@H]3OC4C5OC5(C)CCC4(COC(=O)C4O[C@@]4(C)CCO1)[C@]2(C)[C@]31CO1 (stereo not given in full)
inactive: dose: 1.25 mg/kg/injection, schedule: Q01DX009 (ip), vehicle: Klucel (hydroxypropylcellulose) (HPC) 104 % of control | dose: 2.5 mg/kg/injection, schedule: Q01DX009 (ip), vehicle: Klucel (hydroxypropylcellulose) (HPC) 113 % of control | dose: 5.0 mg/kg/injection, schedule: Q01DX009 (ip), vehicle: Klucel (hydroxypropylcellulose) (HPC) 118 % of control | dose: 10.0 mg/kg/injection, schedule: Q01DX009 (ip), vehicle: Klucel (hydroxypropylcellulose) (HPC) 122 % of control

O=C(O)c1ccc(Oc2nc3ccccc3s2)cc1
inactive: dose: 50.0 mg/kg/injection, schedule: Q04DX003 (ip), vehicle: saline with Tween-80 91 % of control | [1] 91 % of control

O=C(O)c1cc2ccccc2c(Br)c1O.O=[N+]([O-])C1CCC(O)C2[N-]CCCC21.[Cu+]
inactive: [7] 97 % of control | [8] 100 % of control and 106 % of control | [9] 106 % of control and 98 % of control

Cc1ccc(CCNC(=O)c2c3nc4c(C(=O)NCCc5ccc(C)cc5)ccc(C)c4oc-3c(C)c(=O)c2N)cc1
inactive: dose: 25.0 mg/kg/injection, schedule: Q04DX003 (ip), vehicle: DMSO 98 % of control | dose: 50.0 mg/kg/injection, schedule: Q04DX003 (ip), vehicle: DMSO 99 % of control | dose: 100.0 mg/kg/injection, schedule: Q04DX003 (ip), vehicle: DMSO 91 % of control

Cc1cn(CCCn2cnc3cncnc32)c(=O)[nH]c1=O
inactive: dose: 50.0 mg/kg/injection, schedule: Q01DX005 (ip), vehicle: suspension in saline 98 % of control | dose: 100.0 mg/kg/injection, schedule: Q01DX005 (ip), vehicle: suspension in saline 105 % of control | dose: 200.0 mg/kg/injection, schedule: Q01DX005 (ip), vehicle: suspension in saline 96 % of control

[CH2+][B-]1(C)n2ccc[n+]2[B-](C)(C)[n+]2cccn21
inactive: [2] 90 % of control | [3] 98 % of control | [4] 93 % of control

Nc1ccc(N=Nc2ccc3cc4ccc(N=Nc5ccc(N)nc5N)cc4nc3c2)c(N)n1
inactive: [7] 92 % of control | [8] 100 % of control and 106 % of control | [9] 100 % of control and 116 % of control | [10] 95 % of control | [11] 106 % of control | [12] 109 % of control

CCOC(=O)/C=C(\C)NC1CC(OC2CC(O)(C(C)=O)Cc3c(O)c4c(c(O)c32)C(=O)c2c(OC)cccc2C4=O)OC(C)C1O (stereo not given)
inactive: dose: 6.25 mg/kg/injection, schedule: Q04DX003 (ip), vehicle: distilled water + Tween-80 110 % of control | dose: 12.5 mg/kg/injection, schedule: Q04DX003 (ip), vehicle: distilled water + Tween-80 119 % of control | dose: 50.0 mg/kg/injection, schedule: Q04DX003 (ip), vehicle: distilled water + Tween-80 118 % of control

Cc1ccc(S(=O)(=O)N/N=C/c2cc(I)cc([N+](=O)[O-])c2O)cc1
inactive: [10] 95 % of control | [11] 101 % of control | [12] 100 % of control

C(#CP(C#Cc1ccccc1)C#Cc1ccccc1)c1ccccc1
inactive: [13] 103 % of control | [14] 92 % of control | dose: 200.0 mg/kg/injection, schedule: Q01DX009 (ip), vehicle: saline with Tween-80 94 % of control | dose: 400.0 mg/kg/injection, schedule: Q01DX009 (ip), vehicle: saline with Tween-80 86 % of control

CC(C)[C@](O)(C(=O)OCC1=CCN2CC[C@@H](O)[C@@H]12)[C@H](C)O
inactive: dose: 25.0 mg/kg/injection, schedule: Q01DX009 (ip), vehicle: water 105 % of control | dose: 50.0 mg/kg/injection, schedule: Q01DX009 (ip), vehicle: water 100 % of control and 104 % of control | dose: 100.0 mg/kg/injection, schedule: Q01DX009 (ip), vehicle: distilled water + Tween-80 103 % of control | dose: 100.0 mg/kg/injection, schedule: Q01DX009 (ip), vehicle: saline 97 % of control | dose: 100.0 mg/kg/injection, schedule: Q01DX009 (ip), vehicle: water 105 % of control and 107 % of control | dose: 200.0 mg/kg/injection, schedule: Q01DX009 (ip), vehicle: distilled water + Tween-80 112 % of control | dose: 200.0 mg/kg/injection, schedule: Q01DX009 (ip), vehicle: saline 114 % of control | dose: 200.0 mg/kg/injection, schedule: Q01DX009 (ip), vehicle: water 107 % of control and 113 % of control | dose: 400.0 mg/kg/injection, schedule: Q01DX009 (ip), vehicle: distilled water + Tween-80 113 % of control | dose: 400.0 mg/kg/injection, schedule: Q01DX009 (ip), vehicle: saline 112 % of control | dose: 800.0 mg/kg/injection, schedule: Q01DX009 (ip), vehicle: distilled water + Tween-80 103 % of control

CC(C)(C)NCC(O)c1ccc(O)c(CO)n1 (stereo not given)
inactive: [5] 95 % of control | [6] 102 % of control | dose: 200.0 mg/kg/injection, schedule: Q01DX005 (ip), vehicle: saline 95 % of control

OC1(c2ccc(-c3ccc(-c4ccc(C5(O)C(c6ccccc6)=C(c6ccccc6)C(c6ccccc6)=C5c5ccccc5)cc4)cc3)cc2)C(c2ccccc2)=C(c2ccccc2)C(c2ccccc2)=C1c1ccccc1
inactive: dose: 100.0 mg/kg/injection, schedule: Q04DX003 (ip), vehicle: Klucel (hydroxypropylcellulose) (HPC) 93 % of control | dose: 200.0 mg/kg/injection, schedule: Q04DX003 (ip), vehicle: Klucel (hydroxypropylcellulose) (HPC) 90 % of control | dose: 400.0 mg/kg/injection, schedule: Q04DX003 (ip), vehicle: Klucel (hydroxypropylcellulose) (HPC) 93 % of control

C=C(C)[Se]c1ccccc1
inactive: [13] 100 % of control and 118 % of control | [14] 101 % of control and 121 % of control

c1ccc(-c2nnc3c4[nH]c5ccccc5c4cnn23)cc1
inactive: dose: 100.0 mg/kg/injection, schedule: Q01DX001 (ip), vehicle: Klucel (hydroxypropylcellulose) (HPC) 105 % of control | dose: 200.0 mg/kg/injection, schedule: Q01DX001 (ip), vehicle: Klucel (hydroxypropylcellulose) (HPC) 105 % of control | dose: 400.0 mg/kg/injection, schedule: Q01DX001 (ip), vehicle: Klucel (hydroxypropylcellulose) (HPC) 99 % of control

C=C1C2CCC3C4(C)CC(OC5OC(CO)C(OS(=O)(=O)O)C(OS(=O)(=O)O)C5OC(=O)CC(C)C)CC(C(=O)O)(C(=O)O)C4CCC3(C2)C1O (stereo not given)
inactive: dose: 1.25 mg/kg/injection, schedule: Q01DX009 (ip), vehicle: saline 117 % of control | dose: 2.5 mg/kg/injection, schedule: Q01DX009 (ip), vehicle: saline 117 % of control | dose: 5.0 mg/kg/injection, schedule: Q01DX009 (ip), vehicle: saline 114 % of control
